Experimental data: patent US20120142580A1, “OPIOID RECEPTORS STIMULATING COMPOUNDS (THYMOQUINONE, NIGELLA SATIVA) AND FOOD ALLERGY” (NESTEC S.A., priority 2009, published 2012)

Columns and labels:
κ-hOR = κ-hOR (Homo sapiens, UniProt P41145); experiment: Ligand displacement from κ-opioid receptor; assay type: binding; settings: 100 μM
δ-hOR = δ-hOR (Homo sapiens, UniProt P41143); experiment: Ligand displacement from δ-opioid receptor; assay type: binding; settings: 100 μM
[1] = system: mouse mast cell protease 1 (MMCP-1); experiment: Murine model of OVA-induced allergic diarrhea: plasma MMCP-1; assay type: in vivo, Balb/c mice; settings: thymoquinone study; 4th challenge; FIG. 2
From the text: (§1) Briefly, following sensitization (2 intraperitoneal injections of OVA and aluminium potassium sulphate at an interval of 14 days) adult male Balb/c mice were orally challenged with OVA for 6 times (days 28, 30, 33, 35, 37, 40) resulting in transient clinical symptoms (diarrhea) and changes of immune parameters (plasma concentration of total IgE, OVA specific IgE, mouse mast cell protease 1 (MMCP-1) as well as Th2 type cytokine production of ex vivo OVA re-stimulated mesenteric lymphocytes (MLN)). Substances, to be tested, were administered either by subcutaneous injection (thymoquinone and naloxone methiodide according to the literature) or by gavage (Nigella sativa extract).
At large the MMCP-1 concentration in plasma correlates with the number of mast cells in the tissue which are known to be key players of diarrhea development in this mouse model (Brandt, E. B., et al., 2003, J. Clin. Invest 112, 1666-1677).

μ-hOR = μ-hOR (Homo sapiens, UniProt P35372); experiment: Ligand displacement from μ-opioid receptor; assay type: binding; settings: 100 μM
OVA-sensitized mice = experiment: Murine model of OVA-induced allergic diarrhea: diarrhea scores; assay type: in vivo, Balb/c mice
From the text: Male Balb/c mice were sensitized by intraperitoneal injection of ovalbumin (OVA) together with aluminium potassium sulphate.
as §1

Chain of δ-hOR (P41143 whole entry): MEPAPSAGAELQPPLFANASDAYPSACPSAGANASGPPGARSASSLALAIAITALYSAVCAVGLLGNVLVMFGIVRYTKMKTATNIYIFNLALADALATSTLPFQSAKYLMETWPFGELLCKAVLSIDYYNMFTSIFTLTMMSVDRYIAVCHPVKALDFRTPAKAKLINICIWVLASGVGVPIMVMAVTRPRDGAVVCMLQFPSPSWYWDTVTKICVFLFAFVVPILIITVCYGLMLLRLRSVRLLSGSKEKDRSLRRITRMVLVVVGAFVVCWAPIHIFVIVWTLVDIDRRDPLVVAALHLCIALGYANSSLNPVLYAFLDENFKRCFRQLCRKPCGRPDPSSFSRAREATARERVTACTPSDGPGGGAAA
Chain of μ-hOR (P35372 whole entry): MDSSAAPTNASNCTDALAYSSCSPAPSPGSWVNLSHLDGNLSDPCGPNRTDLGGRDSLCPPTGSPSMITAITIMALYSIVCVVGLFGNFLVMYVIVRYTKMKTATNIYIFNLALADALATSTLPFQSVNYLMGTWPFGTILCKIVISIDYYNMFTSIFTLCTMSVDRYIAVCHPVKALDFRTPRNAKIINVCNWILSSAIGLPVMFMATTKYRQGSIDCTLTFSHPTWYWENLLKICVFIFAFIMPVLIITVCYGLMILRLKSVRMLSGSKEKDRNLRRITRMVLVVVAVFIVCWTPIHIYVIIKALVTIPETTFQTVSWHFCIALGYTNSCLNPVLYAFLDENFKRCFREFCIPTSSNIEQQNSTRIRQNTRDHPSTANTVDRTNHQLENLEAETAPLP
Chain of κ-hOR (P41145 whole entry): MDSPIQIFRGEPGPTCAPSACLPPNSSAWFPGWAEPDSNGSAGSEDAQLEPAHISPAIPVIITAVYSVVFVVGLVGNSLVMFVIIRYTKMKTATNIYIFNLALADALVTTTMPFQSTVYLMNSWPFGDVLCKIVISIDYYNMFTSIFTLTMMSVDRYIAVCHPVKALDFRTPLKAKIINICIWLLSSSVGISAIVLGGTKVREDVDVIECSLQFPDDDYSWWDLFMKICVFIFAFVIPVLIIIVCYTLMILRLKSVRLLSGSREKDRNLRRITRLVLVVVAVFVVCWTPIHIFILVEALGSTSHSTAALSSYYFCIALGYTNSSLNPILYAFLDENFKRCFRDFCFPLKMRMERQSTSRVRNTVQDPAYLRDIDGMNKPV

| SMILES | κ-hOR % ligand displacement (κ-hOR) [%] | δ-hOR % ligand displacement (δ-hOR) [%] | plasma MMCP-1 compared to non-treated OVA challenged controls [1] | μ-hOR % ligand displacement (μ-hOR) [%] | diarrhea score (Median ±RobustSD) (OVA-sensitized mice; OVA-challenged mice treated with thymoquinone (subcutaneous), after 6th challenge, FIG. 1, OVA control 5±0) | clinical symptoms compared to non-treated mice (OVA-sensitized mice; thymoquinone 4 days prior to sensitization and during challenge period, after 6th challenge) | diarrhea score (Median ±RobustSD) (OVA-sensitized mice; 3rd challenge, FIG. 3, OVA control 1±1.2) | diarrhea score (Median ±RobustSD) (OVA-sensitized mice; 4th challenge, FIG. 3, OVA control 2±3.6) | diarrhea score (Median ±RobustSD) (OVA-sensitized mice; 5th challenge, FIG. 3, OVA control 4±0) | diarrhea score (Median ±RobustSD) (OVA-sensitized mice; 6th challenge, FIG. 3, OVA control 4.5±1.2) |
| --- | --- | --- | --- | --- | --- | --- | --- | --- | --- | --- |
| CC1=CC(=O)C(C(C)C)=CC1=O [Thymoquinone, 2-Isopropyl-5-methyl-1,4-benzoquinone] | 37 | 48 | significantly lower | 45 | 3±1.79 | significantly improve |  |  |  |  |
| C=CC[N+]1(C)CC[C@]23c4c5ccc(O)c4O[C@H]2C(=O)CC[C@@]3(O)[C@H]1C5.[I-] (stereo partly shown) [Naloxone, naloxone methiodide] |  |  |  |  |  |  | 2±1.2 | 3.5±1.2 | 4±0 | 5±0 |
